# Source: article PMC7527546 (Current Radiopharmaceuticals, 2020)
# Like-named read-outs stand apart in the source and are kept apart here.
# What was measured:
# [1] = in mice; cited from earlier work
# [2] = in man; cited from earlier work
# [3] = test system: athymic mice bearing human prostate C4-2 cancer xenografts; format: in vivo; details: for 224Ra %ID/g: 224Ra measured 2 h after i.v. injection of the named 224Ra-solution; for %ID/g of 212Pb without 212Pb ingrowth from 224Ra: 2 h after i.v. injection of the 224Ra-solution
structure (smiles),measurement,setting,value
[Ra] [radium],renal clearance of radium,[1],about 70%
same,radium excreted by intestinal clearance,[2],more than 90%
[Cl][212Pb][Cl] [[212Pb]PbCl2],tumour-to-kidney ratio,[3]; 2 h after i.v. injection of the 224Ra-solutions,0.04
same,224Ra %ID/g,[3]; Femur,19.40±1.97 %ID/g
same,%ID/g of 212Pb without 212Pb ingrowth from 224Ra,[3]; Kidneys,48.47±7.57 %ID/g
same,224Ra %ID/g,[3]; Skull,19.62±1.28 %ID/g
same,%ID/g of 212Pb without 212Pb ingrowth from 224Ra,[3]; Tumour (C4-2 xenograft),1.71±1.29 %ID/g
"NC(=O)CN1CCN(CC(N)=O)CCN(CC(N)=O)C(Cc2ccc(NC(=S)NCC3CCC(C(=O)NC(Cc4ccc5ccccc5c4)C(=O)NCCCCC(NC(=O)NC(CCC(=O)O)C(=O)O)C(=O)O)CC3)cc2)CN(CC(N)=O)CC1 (centres unmarked) [NG001, p-SCN-Bn-TCMC-PSMA ligand]",lower kidney uptake compared with [212Pb]Pb-PSMA-617,[3]; 2 h after injection,3.5 fold
